These compounds were tested against EGFR Kinase (Homo sapiens, UniProt P00533) (assay: EGFR inhibitory activity test (HTRF kinEASE STK S1 kinase assay)). Conditions: replicate wells, read-out: IC50(nM), Inhibitory Activity of Compounds on EGFR Kinase.
Assay type: biochemical
Method: In a pilot study, the compounds disclosed herein were screened for their EGFR inhibitory activity. The Cisbio Research Product HTRF kinEASE STK S1 kinase assay/inhibitor screening Kit, can detect the generation of the phosphorylated substrate. Kinase, biotinylated substrate and ATP were first added into buffer solution, and the phosphorylated biotinylated substrates were formed by enzyme reaction. Then, to the above solution was added europium-labeled anti-phospho-site specific antibodies and XL665-labeled avidin. The Specific combinations of antibody with antigen, and biotin with avidin, bring the europium and XL665 closer together and resonance energy transferred. The signals at 620 nm and 665 nm were detected, and the activity of the kinase was evaluated by the ratio of the two signals value.

Sequence of EGFR Kinase (P00533 25-1210): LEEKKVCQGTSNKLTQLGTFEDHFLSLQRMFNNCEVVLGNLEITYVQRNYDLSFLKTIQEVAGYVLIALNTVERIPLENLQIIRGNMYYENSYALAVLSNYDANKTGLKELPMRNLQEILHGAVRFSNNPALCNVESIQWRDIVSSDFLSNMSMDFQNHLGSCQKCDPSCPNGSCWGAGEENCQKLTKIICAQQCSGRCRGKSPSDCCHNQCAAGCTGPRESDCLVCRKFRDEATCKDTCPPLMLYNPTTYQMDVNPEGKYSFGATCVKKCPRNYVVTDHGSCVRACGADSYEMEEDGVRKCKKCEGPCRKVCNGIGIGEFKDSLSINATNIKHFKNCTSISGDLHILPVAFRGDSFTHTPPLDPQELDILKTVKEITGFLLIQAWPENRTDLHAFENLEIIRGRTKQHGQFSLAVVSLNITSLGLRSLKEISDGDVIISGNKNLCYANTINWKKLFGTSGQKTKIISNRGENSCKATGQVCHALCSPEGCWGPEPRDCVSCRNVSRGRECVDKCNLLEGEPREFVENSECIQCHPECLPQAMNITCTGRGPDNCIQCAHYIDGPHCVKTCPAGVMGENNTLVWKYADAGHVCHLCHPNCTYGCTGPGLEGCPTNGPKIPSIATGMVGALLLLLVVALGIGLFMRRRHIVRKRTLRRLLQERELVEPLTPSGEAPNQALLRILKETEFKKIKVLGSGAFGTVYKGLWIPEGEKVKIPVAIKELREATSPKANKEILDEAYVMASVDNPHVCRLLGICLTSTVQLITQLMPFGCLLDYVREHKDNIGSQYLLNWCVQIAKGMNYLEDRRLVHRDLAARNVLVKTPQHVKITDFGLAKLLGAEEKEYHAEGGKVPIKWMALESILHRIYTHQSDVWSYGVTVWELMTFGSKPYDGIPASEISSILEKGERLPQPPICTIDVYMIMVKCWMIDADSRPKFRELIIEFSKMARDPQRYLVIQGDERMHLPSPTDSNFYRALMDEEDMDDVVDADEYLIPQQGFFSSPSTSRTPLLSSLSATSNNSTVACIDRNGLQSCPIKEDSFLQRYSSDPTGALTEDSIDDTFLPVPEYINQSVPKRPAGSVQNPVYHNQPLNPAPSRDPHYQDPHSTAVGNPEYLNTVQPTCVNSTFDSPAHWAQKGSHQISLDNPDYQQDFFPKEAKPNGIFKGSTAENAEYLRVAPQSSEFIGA

IC50, 0.001 to 0.1 nM:
CCN1CCCC2CN(CCCOc3cc4c(Nc5ccc(F)c(Cl)c5)ncnc4cc3OC)CC21 (stereo not drawn) [Example 34, N-(3-chloro-4-fluorophenyl)-6-(3-(1-ethylhexahydro-1H-pyrrolo[3,4-b]pyridin-6(2H)-yl)propoxy)-7-methoxyquinazolin-4-amine]
COc1cc2ncnc(Nc3ccc(F)c(Cl)c3)c2cc1OCCCN1CCC2CCCCC2C1 (stereo not drawn) [Example 35, N-(3-chloro-4-fluorophenyl)-7-methoxy-6-(3-(octahydroisoquinolin-2(1H)-yl)propoxy)quinazolin-4-amine]
COc1cc2ncnc(Nc3ccc(F)c(Cl)c3)c2cc1OCCCN1C[C@@H]2OCCO[C@H]2C1 [Example 40, N-(3-chloro-4-fluorophenyl)-7-methoxy-6-(3-((4aS,7aS)-tetrahydro-2H-[1,4]dioxino[2,3-c]pyrrol-6(3H)-yl)propoxy)quinazolin-4-amine]
COc1cc2ncnc(Nc3ccc(F)cc3)c2cc1OCCCN1CC2CNCC2C1 (stereo not drawn) [Example 41, N-(4-fluorophenyl)-6-(3-(hexahydropyrrolo[3,4-c]pyrrol-2(1H)-yl)propoxy)-7-methoxyquinazolin-4-amine]

IC50, 0.101 to 1 nM:
COc1cc2ncnc(Nc3ccc(F)c(Cl)c3)c2cc1OCCCN1CCc2c(c(C)nn2C)C1 [Example 38, N-(3-chloro-4-fluorophenyl)-6-(3-(1,3-dimethyl-6,7-dihydro-1H-pyrazolo[4,3-c]pyridin-5(4H)-yl)propoxy)-7-methoxyquinazolin-4-amine]
COc1cc2ncnc(Nc3ccc(F)cc3)c2cc1OCCCN1CCC2COCC2C1 (stereo not drawn) [Example 43, N-(4-fluorophenyl)-6-(3-(hexahydrofuro[3,4-c]pyridin-5(3H)-yl)propoxy)-7-methoxyquinazolin-4-amine]
C#Cc1cc(Nc2ncnc3cc(OC)c(OCCCN4CC5CNCC5C4)cc23)ccc1F (stereo not drawn) [Example 44, N-(3-ethynyl-4-fluorophenyl)-6-(3-(hexahydropyrrolo[3,4-c]pyrrol-2(1H)-yl)propoxy)-7-methoxyquinazolin-4-amine]
C#Cc1cc(Nc2ncnc3cc(OC)c(OCCCN4CCn5cnnc5C4)cc23)ccc1F [Example 45, 6-(3-(5,6-dihydro-[1,2,4]triazolo[4,3-a]pyrazin-7(8H)-yl)propoxy)-N-(3-ethynyl-4-fluorophenyl)-7-m ethoxyquinazolin-4-amine]

IC50, 1 to 10 nM:
COc1cc2ncnc(Nc3ccc(F)c(Cl)c3)c2cc1OCCCN1CCC2OCCOC2C1 (stereo not drawn) [Example 36, N-(3-chloro-4-fluorophenyl)-6-(3-(hexahydro-[1,4]dioxino[2,3-c]pyridin-6(7H)-yl)propoxy)-7-methoxyquinazolin-4-amine]
COc1cc2ncnc(Nc3ccc(F)c(Cl)c3)c2cc1OCCCN1CCC2COCC2C1 (stereo not drawn) [Example 37, N-(3-chloro-4-fluorophenyl)-6-(3-(hexahydrofuro[3,4-c]pyridin-5(3H)-yl)propoxy)-7-methoxy quinazolin-4-amine]
COc1cc2ncnc(Nc3ccc(F)c(Cl)c3)c2cc1OCCCN1CCc2nn(C)c(C)c2C1 [Example 39, N-(3-chloro-4-fluorophenyl)-6-(3-(2,3-dimethyl-6,7-dihydro-2H-pyrazolo[4,3-c]pyridine-5(4H)-yl)propoxy)-7-methoxyquinazolin-4-amine]
COc1cc2ncnc(Nc3ccc(F)cc3)c2cc1OCCCN1CCn2cnnc2C1 [Example 42, 6-(3-(5,6-dihydro-[1,2,4]triazolo[4,3-a]pyrazin-7(8H)-yl)propoxy)-N-(4-fluorophenyl)-7-methoxyquinazolin-4-amine]
